# Measured values taken from ChEMBL document CHEMBL1201862, “PubChem BioAssay data set” (2004).
# The source made the active and inactive calls.
# Columns and labels:
# Large T antigen = Large T antigen (Simian virus 40, UniProt P03070); assay type: functional, Betapolyomavirus macacae;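 further: Confirmatory-stage PubChem screen for compounds that inhibit SV40 T antigen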
# [1] = molecular target: T1, Rac GTPase-activating protein 1 (Homo sapiens, UniProt Q9H0H5); test: MgcRacGAP GTPase-activating activity inhibitors, confirmation, biochemical, ADP Hunter fluorescence, primary and confirmatory (AID 624330); assay type: functional
# T1 sequence (Q9H0H5 whole entry): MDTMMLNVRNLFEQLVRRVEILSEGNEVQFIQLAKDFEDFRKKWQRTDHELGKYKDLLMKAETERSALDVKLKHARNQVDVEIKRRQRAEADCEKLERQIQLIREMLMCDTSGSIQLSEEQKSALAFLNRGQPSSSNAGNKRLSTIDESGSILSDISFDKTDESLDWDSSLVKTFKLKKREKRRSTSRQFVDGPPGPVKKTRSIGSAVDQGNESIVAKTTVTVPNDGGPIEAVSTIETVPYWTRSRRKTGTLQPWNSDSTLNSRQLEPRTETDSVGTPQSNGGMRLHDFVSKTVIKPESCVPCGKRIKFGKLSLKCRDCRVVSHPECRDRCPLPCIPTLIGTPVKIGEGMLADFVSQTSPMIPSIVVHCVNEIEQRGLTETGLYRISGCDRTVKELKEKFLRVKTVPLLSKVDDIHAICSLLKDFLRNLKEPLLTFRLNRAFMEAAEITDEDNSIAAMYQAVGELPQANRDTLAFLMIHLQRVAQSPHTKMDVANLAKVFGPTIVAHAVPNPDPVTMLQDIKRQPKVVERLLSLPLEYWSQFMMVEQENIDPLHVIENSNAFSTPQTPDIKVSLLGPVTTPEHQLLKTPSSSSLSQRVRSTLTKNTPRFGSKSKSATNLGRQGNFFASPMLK
# [2] = molecular target: T2, Polyadenylate-binding protein 1 (Homo sapiens, UniProt P11940); test: PABP1 MLLE–PAM2 binding inhibitor potency, dose response, biochemical, fluorescence polarization, FITC-PAM2 peptide (AID 602259); assay type: functional; details: read-out: IC50_Mean
# T2 sequence (P11940 whole entry): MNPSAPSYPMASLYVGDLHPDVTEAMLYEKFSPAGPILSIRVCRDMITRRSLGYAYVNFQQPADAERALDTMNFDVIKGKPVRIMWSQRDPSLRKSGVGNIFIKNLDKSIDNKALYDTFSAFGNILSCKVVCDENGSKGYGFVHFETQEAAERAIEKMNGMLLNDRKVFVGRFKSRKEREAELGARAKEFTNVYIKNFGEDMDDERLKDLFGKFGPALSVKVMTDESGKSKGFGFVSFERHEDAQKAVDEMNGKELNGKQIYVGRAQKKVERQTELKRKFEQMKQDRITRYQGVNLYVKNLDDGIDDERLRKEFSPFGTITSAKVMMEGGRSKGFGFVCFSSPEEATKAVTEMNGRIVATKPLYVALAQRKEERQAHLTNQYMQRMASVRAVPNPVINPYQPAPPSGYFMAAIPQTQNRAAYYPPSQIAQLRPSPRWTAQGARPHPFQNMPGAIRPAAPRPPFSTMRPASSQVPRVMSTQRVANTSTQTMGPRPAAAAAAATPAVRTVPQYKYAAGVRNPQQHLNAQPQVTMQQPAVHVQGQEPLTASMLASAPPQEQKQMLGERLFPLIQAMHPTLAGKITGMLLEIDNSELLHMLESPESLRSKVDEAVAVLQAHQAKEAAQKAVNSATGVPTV
# Streptokinase A = molecular target: T3, Streptokinase A (Streptococcus pyogenes serotype M1, UniProt P10520); test: S. pyogenes streptokinase expression inhibitors, potency, dose response, plasminogen activation absorbance, OD405 (AID 1914); assay type: functional, Streptococcus pyogenes M1 GAS;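 further: secreted streptokinase activity via plasminogen activation per viability signal from cell pellet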
# T3 sequence (P10520 whole entry): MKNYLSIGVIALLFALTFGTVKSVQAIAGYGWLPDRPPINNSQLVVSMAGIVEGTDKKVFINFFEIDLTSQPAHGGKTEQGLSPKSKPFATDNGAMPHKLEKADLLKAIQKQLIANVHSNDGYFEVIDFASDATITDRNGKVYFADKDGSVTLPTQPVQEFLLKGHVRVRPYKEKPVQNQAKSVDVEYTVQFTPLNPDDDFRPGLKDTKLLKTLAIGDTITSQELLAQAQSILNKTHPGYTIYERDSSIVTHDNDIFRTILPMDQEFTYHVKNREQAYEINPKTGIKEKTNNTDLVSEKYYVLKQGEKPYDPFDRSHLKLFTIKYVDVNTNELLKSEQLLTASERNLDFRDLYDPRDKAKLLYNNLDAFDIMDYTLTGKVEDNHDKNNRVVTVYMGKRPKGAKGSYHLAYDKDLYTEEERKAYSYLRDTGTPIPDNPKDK
# [3] = molecular target: T2, Polyadenylate-binding protein 1; test: PABP1 MLLE–PAM2 interaction inhibitors, dose response, miRNA deadenylation inhibitor project, biochemical, fluorescence polarization, Cy5-PAM2 peptide, secondary (AID 602260); assay type: functional; details: read-out: IC50_Mean
# [4] = P. falciparum Dd2 growth inhibitors, dose response, SYBR Green, cherry-picked samples (AID 1159567); assay type: functional, cell-based
# [5] = Luminescence Cell-Based Dose Response HTS to Identify Activators of Luciferase Translation or Activity in H4 […] Cells. [Related pubchem assays: 1829 (Project Summary), 1814 (Primary HTS)]; assay type: functional
# [6] = Luminescence Cell-Based Dose Confirmation HTS to Identify Activators of 5'UTR Stem-Loop Driven Alpha-Synuclein mRNA Translation in H4 Neuroglioblastoma Cells. [Related pubchem assays: 1829 (Project Summary), 1814 (Primary HTS)]; assay type: functional
# H4 = test: Luminescence Cell-Based Dose Response HTS to Identify Activators of 5'UTR Stem-Loop Driven Prion Protein mRNA Translation in H4 Neuroglioblastoma Cells. [Related pubchem assays: 1829 (Project Summary), 1814 (Primary HTS)]; assay type: functional; details: Homo sapiens
# [7] = ZM109 Env clade C HIV-1 fusion inhibitors, dose response, HeLa effector, CEM target cells, luciferase, cherry-pick (AID 652058); assay type: functional, cell-based
# [8] = inhibitors of clade B AD8 Env fusion, dose response, cell-based, cherry-pick (AID 652062); assay type: functional;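 further: luciferase signal from cell-cell fusion driven by HIV-1 clade B AD8 Env; potency is for inhibitors of fusion seen as a drop in luminescence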
# [9] = off-target signal loss in HeLa-CEM21 co-culture – HeLa F-luc CTL cells, cherry-picked, counter-screen for HIV-1 Env fusion inhibitor project, dose response (AID 652040); assay type: functional, cell-based;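 further: potency for signal decrease marking cytotoxic or nonspecific inhibition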
# [10] = inhibitors of HIV Env-driven cell fusion, dose response, cherry-pick (AID 652057); assay type: functional, cell-based
# INS1 = test: beta cell apoptosis inhibitors, cytokine rescue, dose response, luminescence, retest (AID 449756); assay type: functional, cell-based; details: Rattus norvegicus;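 further: cell death triggered by IL-1 beta plus TNF-alpha plus IFN-gamma mixture; protective hits raise ATP signal compared with cytokine alone wells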
# [11] = molecular target: T4, Ubiquitin-conjugating enzyme E2 N (Homo sapiens, UniProt P61088); assay type: functional;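 further: Dose-response confirmation in a TR-FRET assay detecting UBC13-driven polyubiquitin chain formation, inhibition measured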
# T4 sequence (P61088 whole entry): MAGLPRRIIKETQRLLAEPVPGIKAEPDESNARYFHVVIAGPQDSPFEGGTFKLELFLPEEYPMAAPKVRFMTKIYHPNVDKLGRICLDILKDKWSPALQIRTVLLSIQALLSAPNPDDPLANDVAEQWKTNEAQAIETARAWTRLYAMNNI
# [12] = molecular target: T5, Heat shock factor protein 1 (Mus musculus, UniProt P38532); test: inhibition of MG132-induced HSE-luciferase signal, confirmation, cell-based, NIH3T3, luminescence, dose retest (AID 2382); assay type: functional;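 further: NIH3T3 fibroblasts with HSF1-driven luciferase reporter stressed by proteasome inhibitor MG132; luminescence from HSF1-driven luciferase expression after 8 hours of MG132 stress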
# T5 sequence (P38532 whole entry): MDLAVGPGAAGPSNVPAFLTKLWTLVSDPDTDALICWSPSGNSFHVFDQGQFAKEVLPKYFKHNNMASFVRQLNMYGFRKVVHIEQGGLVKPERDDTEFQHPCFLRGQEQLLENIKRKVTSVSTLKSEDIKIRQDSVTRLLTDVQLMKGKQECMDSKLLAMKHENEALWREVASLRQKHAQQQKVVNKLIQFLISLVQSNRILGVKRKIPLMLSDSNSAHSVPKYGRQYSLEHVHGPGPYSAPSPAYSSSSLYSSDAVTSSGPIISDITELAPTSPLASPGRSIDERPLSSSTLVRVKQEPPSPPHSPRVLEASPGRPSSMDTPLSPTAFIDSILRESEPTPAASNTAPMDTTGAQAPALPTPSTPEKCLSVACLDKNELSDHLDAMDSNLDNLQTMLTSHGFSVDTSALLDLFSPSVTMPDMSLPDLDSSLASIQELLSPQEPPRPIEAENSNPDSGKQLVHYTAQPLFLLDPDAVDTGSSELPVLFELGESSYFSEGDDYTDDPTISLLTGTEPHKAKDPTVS
# [13] = Luminescence Cell-Based Dose Retest to Confirm Inhibitors of Cancer Stem Cells. [Related pubchem assays (depositor defined):AID2717, AID2721]; assay type: functional; details: Homo sapiens
# [14] = Luminescence Cell-Based Dose Response HTS to Identify Inhibitors of 5'UTR Stem-Loop Driven Prion Protein mRNA Translation in H4 Neuroglioblastoma Cells. [Related pubchem assays: 1827 (Project Summary), 1813 (Primary HTS)]; assay type: functional
# [15] = inhibitors of firefly luciferase expression or activity, dose response, H4 neuroglioma cells, luminescence (AID 1990); assay type: functional, cell-based
# [16] = inhibitors of SNCA 5'UTR-driven reporter translation, confirmation, H4 neuroglioma cells, luminescence (AID 1988); assay type: functional, cell-based
# Large T antigen, sequence (P03070 whole entry): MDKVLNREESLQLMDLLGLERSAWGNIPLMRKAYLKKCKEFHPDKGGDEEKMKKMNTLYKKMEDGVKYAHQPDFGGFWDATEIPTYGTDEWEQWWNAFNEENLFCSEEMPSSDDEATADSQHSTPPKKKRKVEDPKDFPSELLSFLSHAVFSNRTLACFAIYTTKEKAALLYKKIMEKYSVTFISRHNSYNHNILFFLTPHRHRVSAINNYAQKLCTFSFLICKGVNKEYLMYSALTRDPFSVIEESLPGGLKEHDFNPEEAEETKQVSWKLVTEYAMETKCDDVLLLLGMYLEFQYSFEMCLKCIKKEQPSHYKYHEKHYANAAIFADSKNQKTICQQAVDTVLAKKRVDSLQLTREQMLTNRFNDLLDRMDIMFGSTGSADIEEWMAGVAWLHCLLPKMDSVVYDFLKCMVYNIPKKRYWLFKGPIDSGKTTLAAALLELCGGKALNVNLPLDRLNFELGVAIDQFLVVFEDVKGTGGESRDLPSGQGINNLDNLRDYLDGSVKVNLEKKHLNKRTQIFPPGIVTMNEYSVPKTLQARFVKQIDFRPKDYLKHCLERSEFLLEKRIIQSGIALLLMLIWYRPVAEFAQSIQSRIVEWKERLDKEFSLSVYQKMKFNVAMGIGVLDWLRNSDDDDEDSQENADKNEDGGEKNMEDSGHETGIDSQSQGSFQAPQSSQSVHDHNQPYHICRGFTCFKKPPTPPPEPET
smiles,measurement,setting,value
COc1cc(/C=N/n2cnnc2)ccc1OC(=O)c1ccncc1,IC50,Large T antigen,75 µM (active)
same,IC50,[1],31 µM (active)
CC(=O)c1ccc(NC(=S)Nc2ccc(Br)c(Cl)c2)cc1,IC50,[2],> 66 µM (inactive)
same,EC50,Streptokinase A,> 150 µM (not active)
same,IC50,[3],> 66 µM (inactive)
CCCN(C)C[C@@H]1Oc2cc(C#Cc3ccncc3)ccc2S(=O)(=O)N([C@H](C)CO)C[C@@H]1C,AC50,[4],6.76 µM (active)
O=C1C(CSCc2ccccc2)NC(=S)N1c1ccccc1 (stereo not given),EC50,[5],> 120 µM (not active)
same,EC50,[6],> 120 µM (not active)
same,EC50,H4,> 120 µM (not active)
CC(C)C[C@@H](CN(C)N=O)N(C[C@H](Cc1ccccc1)N(CCc1ccccc1)N=O)N=O,AC50,[7],5.62 µM (active)
same,AC50,[8],7.36 µM (active)
same,AC50,[9],7.74 µM (active)
same,AC50,[10],4.34 µM (active)
ClCC1=Nc2cccc3cccc(c23)N1,IC50,Large T antigen,10 µM (active)
Fc1ccc(CN(Cc2ccccc2)C(c2cccs2)c2nnnn2C2CCCCC2)cc1 (stereo not given),AC50,INS1,6.47 µM (active)
COc1ccc(CN2C(=O)NC(=O)/C(=C/c3ccoc3)C2=O)cc1,IC50,Large T antigen,36.9 µM (active)
CC(C)(COC(=O)C(c1ccccc1)c1ccccc1)CN1CCOCC1,AC50,[7],2.42 µM (active)
same,AC50,[8],1.83 µM (active)
same,AC50,[9],4.01 µM (active)
same,AC50,[10],4.96 µM (active)
COc1ccnc2c1c(=O)n(Cc1cccc(F)c1)c(=O)n2C,IC50,[11],> 20 µM (inactive)
CCc1ccc(-c2cn3nc(C)c(C)nc3n2)cc1,AC50,[7],29.3 µM (active)
same,AC50,[8],6.35 µM (active)
same,AC50,[9],11 µM (active)
same,AC50,[10],3.94 µM (active)
CCC(=O)NC(c1cccs1)c1cc(Cl)c2ccccc2c1O (stereo not given),IC50,[11],> 20 µM (inactive)
C[C@H](CO)N1C[C@H](C)[C@H](CN(C)C(=O)Cc2ccccc2)OCc2ccccc2-c2c(n(C)c3ccccc23)C1=O,AC50,[7],< 0.26 µM (active)
same,AC50,[8],< 0.26 µM (active)
same,AC50,[10],< 0.26 µM (active)
COc1ccc(NC(=O)Nc2cccc3cccnc23)cc1,EC50,[5],5.48 µM (active)
same,EC50,[6],21.7 µM (active)
same,EC50,H4,21.2 µM (active)
CC(=O)c1c(C)oc2ccc(N(C(C)=O)S(=O)(=O)c3cccc4cccnc34)cc12,AC50,INS1,3.85 µM (active)
CCOc1ccc(C2CC(c3ccc(CC)cc3)Nc3nc(N)nn32)cc1 (stereo not given),EC50,[5],10.5 µM (active)
same,EC50,[6],> 120 µM (not active)
same,EC50,H4,19.7 µM (active)
O=C(CSc1c[nH]nn1)Nc1ccc(O)c(C(=O)O)c1,IC50,[2],> 66 µM (inactive)
same,IC50,[3],> 66 µM (inactive)
same,EC50,[12],> 195 µM (not active)
C/C=C/c1ccc([C@H]2[C@@H](CO)N(C(=O)C3CCCC3)[C@H]2CNCCC)cc1,AC50,[4],4.85 µM (active)
Sc1nnc(-c2ccc(Cl)cc2Cl)n1-c1ccccc1,EC50,[5],56.4 µM (active)
same,EC50,[6],15.5 µM (active)
same,EC50,H4,14.9 µM (active)
COc1cc(C(c2c(C)n[nH]c2O)c2c(C)n[nH]c2O)ccc1OC(=O)c1cccc([N+](=O)[O-])c1,IC50,Large T antigen,> 100 µM (active)
COc1ccc(O)c(/C=N/NC(=O)c2cccc(N3CCCC3=O)c2)c1,AC50,INS1,3.55 µM (active)
O=C(NC(=S)Nc1ccc(O)cc1)c1cncc(Br)c1,IC50,Large T antigen,6.41 µM (active)
CN1C(=O)/C(=C2/C=CC=CN2C)OC1=S,IC50,[2],> 66 µM (inactive)
same,IC50,[3],> 66 µM (inactive)
OCCN1CCN(CC/C=C2/c3ccccc3Sc3ccc(Cl)cc32)CC1,IC50,[11],> 20 µM (inactive)
CCCOc1ccc2ccccc2c1/C=N/n1cnnc1,AC50,[7],4.27 µM (active)
same,AC50,[8],18.5 µM (active)
same,AC50,[9],25.6 µM (active)
same,AC50,[10],24.8 µM (active)
O=C(CCCOc1ccc(Cl)cc1Cl)Nc1cc(S(=O)(=O)N2CCOCC2)ccc1N1CCOCC1,AC50,[7],11.8 µM (active)
same,AC50,[8],15.8 µM (active)
same,AC50,[9],6.33 µM (active)
same,AC50,[10],3.23 µM (active)
COc1ccc2[nH]c3c(=O)n(CCCCC(=O)N4CCC(C(N)=O)CC4)c(=S)[nH]c3c2c1,IC50,[2],> 66 µM (inactive)
same,IC50,[3],> 66 µM (inactive)
same,IC50,[1],55.4 µM (active)
O=C(CSc1nnc(C2COc3ccccc3O2)o1)N1CCCC1 (stereo not given),IC50,[2],> 66 µM (inactive)
same,IC50,[3],> 66 µM (inactive)
CCc1ccc(S(=O)(=O)N=C(S)NC2CCCCC2)cc1,IC50,[2],> 66 µM (inactive)
same,IC50,[3],> 66 µM (inactive)
CCCCCc1cc(=O)oc2c(C(CCN3CCCC(C)C3)c3cc(OC)c(OC)c(OC)c3)c(OC)cc(OC)c12 (stereo not given),AC50,[13],6.25 µM (active)
same,EC50,[14],> 120 µM (not active)
same,EC50,[15],> 120 µM (not active)
same,EC50,[16],> 120 µM (not active)
same,AC50,INS1,8.07 µM (active)
Cc1ccc(S(=O)(=O)N2CCCCC2)cc1C(=O)NCCC1=CCCCC1,AC50,[7],5.36 µM (active)
same,AC50,[8],17.1 µM (active)
same,AC50,[9],7.03 µM (active)
same,AC50,[10],3.71 µM (active)
CS(=O)(=O)N1CCN(C(=O)C(Sc2ccccc2)c2ccccc2)CC1 (stereo not given),IC50,[2],> 66 µM (inactive)
same,IC50,[3],> 66 µM (inactive)
CC(C)[C@H](CN(N=O)[C@@H](Cc1ccccc1)CN(C)N=O)N(CCc1ccccc1)N=O,AC50,[7],12.3 µM (active)
same,AC50,[8],15.5 µM (active)
same,AC50,[9],10.8 µM (active)
same,AC50,[10],5.66 µM (active)
O=C(C1CCC1)N1CC(=O)N2[C@H](CO)[C@@H](c3ccc(C#CCc4ccccc4)cc3)[C@H]2C1,AC50,[4],9.44 µM (active)
